In PubChem BioAssay AID1963836 (Molecular Pharmacology Branch, DTP, NCI, 2024):

Test system: 857933-349-R-J2-PDC complex spheroid viability
Assay: Anticancer human tumor 857933-349-R-J2-PDC patient-derived colon adenocarcinoma cell line growth inhibition [POLQ]
Details: for IC50: curve of first compound; for viability, T/C: stronger effect = lower value
Outline: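 PDC + HUVEC + MSC complex spheroids; POLQ inhibitors ± partner drugs; top conc. at/near clinical Cmax, else 10 microM (SN-38 1 microM), half-log dilutions; 37 degrees C, 5% CO2.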

[1] = second compound 0.0316 µM, first compound 0.00316 µM
[2] = second compound 0.0316 µM, first compound 0.01 µM
[3] = second compound 0.0316 µM, first compound 0.0316 µM
[4] = second compound 0.0316 µM, first compound 0.1 µM
[5] = second compound 0.0316 µM, first compound 0.316 µM
[6] = second compound 0.0316 µM, first compound 1 µM
[7] = second compound 0.1 µM, first compound 0.00316 µM
[8] = second compound 0.1 µM, first compound 0.01 µM
[9] = second compound 0.1 µM, first compound 0.0316 µM
[10] = second compound 0.1 µM, first compound 0.1 µM
[11] = second compound 0.1 µM, first compound 0.316 µM
[12] = second compound 0.1 µM, first compound 1 µM
[13] = second compound 0.316 µM, first compound 0.00316 µM
[14] = second compound 0.316 µM, first compound 0.01 µM
[15] = second compound 0.316 µM, first compound 0.0316 µM
[16] = second compound 0.316 µM, first compound 0.1 µM
[17] = second compound 0.316 µM, first compound 0.316 µM
[18] = second compound 0.316 µM, first compound 1 µM
[19] = second compound 1 µM, first compound 0.00316 µM
[20] = second compound 1 µM, first compound 0.01 µM
[21] = second compound 1 µM, first compound 0.0316 µM
[22] = second compound 1 µM, first compound 0.1 µM
[23] = second compound 1 µM, first compound 0.316 µM
[24] = second compound 1 µM, first compound 1 µM
[25] = second compound 3.16 µM, first compound 0.00316 µM
[26] = second compound 3.16 µM, first compound 0.01 µM
[27] = second compound 3.16 µM, first compound 0.0316 µM
[28] = second compound 3.16 µM, first compound 0.1 µM
[29] = second compound 3.16 µM, first compound 0.316 µM
[30] = second compound 3.16 µM, first compound 1 µM
[31] = second compound 10 µM, first compound 0.00316 µM
[32] = second compound 10 µM, first compound 0.01 µM
[33] = second compound 10 µM, first compound 0.0316 µM
[34] = second compound 10 µM, first compound 0.1 µM
[35] = second compound 10 µM, first compound 0.316 µM
[36] = second compound 10 µM, first compound 1 µM
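Also: spheroids exposed to compounds for seven days before readout.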

Q: Which results are given for `C=CCn1c(=O)c2cnc(Nc3ccc(N4CCN(C)CC4)cc3)nc2n1-c1cccc(C(C)(C)O)n1` + COC1C(OC(N)=O)C(O)C(Oc2ccc3c(O)c(NC(=O)c4ccc(O)c(CC=C(C)C)c4)c(=O)oc3c2C)OC1(C)C?
A: IC50 (second compound 0.0316 µM): > 1000 nM; IC50 (second compound 0.1 µM): > 1000 nM; IC50 (second compound 0.316 µM): > 1000 nM; IC50 (second compound 1 µM): > 1000 nM; IC50 (second compound 3.16 µM): > 1000 nM; IC50 (second compound 10 µM): > 1000 nM; viability, T/C [1]: 89.8%; viability, T/C [2]: 96.5%; viability, T/C [3]: 76.7%; viability, T/C [4]: 81.7%; viability, T/C [5]: 84.6%; viability, T/C [6]: 80.9%; viability, T/C [7]: 97.9%; viability, T/C [8]: 106%; viability, T/C [9]: 112%; viability, T/C [10]: 89.4%; viability, T/C [11]: 74.3%; viability, T/C [12]: 64.7%; viability, T/C [13]: 92.4%; viability, T/C [14]: 95.3%; viability, T/C [15]: 91%; viability, T/C [16]: 78.8%; viability, T/C [17]: 79.2%; viability, T/C [18]: 64.1%; viability, T/C [19]: 102%; viability, T/C [20]: 80.4%; viability, T/C [21]: 88.7%; viability, T/C [22]: 87.3%; viability, T/C [23]: 95.8%; viability, T/C [24]: 61.8%; viability, T/C [25]: 92%; viability, T/C [26]: 86.6%; viability, T/C [27]: 74.6%; viability, T/C [28]: 74.2%; viability, T/C [29]: 91.1%; viability, T/C [30]: 77.5%; viability, T/C [31]: 83.8%; viability, T/C [32]: 86.8%; viability, T/C [33]: 91.8%; viability, T/C [34]: 72.5%; viability, T/C [35]: 83.9%; viability, T/C [36]: 67.5%

Q: Which results are given for `CC[C@@]1(O)C(=O)OCc2c1cc1n(c2=O)Cc2cc3c(CN(C)C)c(O)ccc3nc2-1` + COC1C(OC(N)=O)C(O)C(Oc2ccc3c(O)c(NC(=O)c4ccc(O)c(CC=C(C)C)c4)c(=O)oc3c2C)OC1(C)C?
A: IC50 (second compound 0.0316 µM): > 100 nM; IC50 (second compound 0.1 µM): 80.7 nM; IC50 (second compound 0.316 µM): > 100 nM; IC50 (second compound 1 µM): > 100 nM; IC50 (second compound 3.16 µM): > 100 nM; IC50 (second compound 10 µM): > 100 nM; viability, T/C (second compound 0.0316 µM, first compound 0.000316 µM): 117%; viability, T/C (second compound 0.0316 µM, first compound 0.001 µM): 107%; viability, T/C [1]: 97.6%; viability, T/C [2]: 84.8%; viability, T/C [3]: 83%; viability, T/C [4]: 50.7%; viability, T/C (second compound 0.1 µM, first compound 0.000316 µM): 105%; viability, T/C (second compound 0.1 µM, first compound 0.001 µM): 93.3%; viability, T/C [7]: 88.5%; viability, T/C [8]: 80%; viability, T/C [9]: 71%; viability, T/C [10]: 44.2%; viability, T/C (second compound 0.316 µM, first compound 0.000316 µM): 120%; viability, T/C (second compound 0.316 µM, first compound 0.001 µM): 86%; viability, T/C [13]: 94.4%; viability, T/C [14]: 76.1%; viability, T/C [15]: 88.5%; viability, T/C [16]: 50.4%; viability, T/C (second compound 1 µM, first compound 0.000316 µM): 138%; viability, T/C (second compound 1 µM, first compound 0.001 µM): 83.5%; viability, T/C [19]: 86%; viability, T/C [20]: 72%; viability, T/C [21]: 87.1%; viability, T/C [22]: 49.7%; viability, T/C (second compound 3.16 µM, first compound 0.000316 µM): 128%; viability, T/C (second compound 3.16 µM, first compound 0.001 µM): 102%; viability, T/C [25]: 79.4%; viability, T/C [26]: 90.7%; viability, T/C [27]: 65.9%; viability, T/C [28]: 44.3%; viability, T/C (second compound 10 µM, first compound 0.000316 µM): 136%; viability, T/C (second compound 10 µM, first compound 0.001 µM): 123%; viability, T/C [31]: 69.3%; viability, T/C [32]: 96.3%; viability, T/C [33]: 81.6%; viability, T/C [34]: 45.4%

Q: Which IC50 (second compound 0.0316 µM) does the source give for `CCc1c2c(nc3ccc(O)cc13)-c1cc3c(c(=O)n1C2)COC(=O)[C@]3(O)CC` + COC1C(OC(N)=O)C(O)C(Oc2ccc3c(O)c(NC(=O)c4ccc(O)c(CC=C(C)C)c4)c(=O)oc3c2C)OC1(C)C here?
A: The IC50 was 19.9 nM.

Q: And the IC50 (second compound 0.1 µM)?
A: The IC50 was 19.4 nM.

Q: And the IC50 (second compound 0.316 µM)?
A: Its IC50 is 17.5 nM.

Q: What about the IC50 (second compound 1 µM) of the same compound?
A: The IC50 was 12.5 nM.

Q: What about the IC50 (second compound 3.16 µM) of the same compound?
A: The IC50 was 15.8 nM.

Q: What about the IC50 (second compound 10 µM) of the same compound?
A: The IC50 was 9.42 nM.

Q: What about the viability, T/C [1] of the same compound?
A: Its viability, T/C is 84.5%.

Q: What about the viability, T/C [2] of the same compound?
A: Its viability, T/C is 71.7%.

Q: What about the viability, T/C [3] of the same compound?
A: Its viability, T/C is 32.1%.

Q: What about the viability, T/C [4] of the same compound?
A: The viability, T/C was 25.3%.

Q: And the viability, T/C [5]?
A: The viability, T/C was 17.5%.

Q: What about the viability, T/C [6] of the same compound?
A: The viability, T/C was 5.52%.

Q: And the viability, T/C [7]?
A: Its viability, T/C is 88.3%.

Q: And the viability, T/C [8]?
A: The viability, T/C was 76.1%.

Q: What about the viability, T/C [9] of the same compound?
A: Its viability, T/C is 29.7%.

Q: And the viability, T/C [10]?
A: Its viability, T/C is 20.2%.

Q: And the viability, T/C [11]?
A: Its viability, T/C is 14.1%.

Q: What about the viability, T/C [12] of the same compound?
A: The viability, T/C was 4.89%.

Q: And the viability, T/C [13]?
A: The viability, T/C was 92.3%.

Q: What about the viability, T/C [14] of the same compound?
A: Its viability, T/C is 71.7%.

Q: What about the viability, T/C [15] of the same compound?
A: The viability, T/C was 26.3%.

Q: And the viability, T/C [16]?
A: The viability, T/C was 17.3%.

Q: And the viability, T/C [17]?
A: Its viability, T/C is 15.2%.

Q: And the viability, T/C [18]?
A: Its viability, T/C is 5.5%.

Q: And the viability, T/C [19]?
A: Its viability, T/C is 89%.

Q: What about the viability, T/C [20] of the same compound?
A: Its viability, T/C is 56.6%.

Q: And the viability, T/C [21]?
A: The viability, T/C was 22.9%.

Q: What about the viability, T/C [22] of the same compound?
A: The viability, T/C was 16.7%.

Q: And the viability, T/C [23]?
A: Its viability, T/C is 16.2%.

Q: What about the viability, T/C [24] of the same compound?
A: The viability, T/C was 5.68%.

Q: And the viability, T/C [25]?
A: Its viability, T/C is 84.8%.

Q: And the viability, T/C [26]?
A: The viability, T/C was 62.8%.

Q: What about the viability, T/C [27] of the same compound?
A: Its viability, T/C is 29.8%.

Q: What about the viability, T/C [28] of the same compound?
A: Its viability, T/C is 22.4%.

Q: What about the viability, T/C [29] of the same compound?
A: The viability, T/C was 12.5%.

Q: What about the viability, T/C [30] of the same compound?
A: The viability, T/C was 6.77%.

Q: What about the viability, T/C [31] of the same compound?
A: Its viability, T/C is 80.6%.

Q: And the viability, T/C [32]?
A: Its viability, T/C is 42.7%.

Q: And the viability, T/C [33]?
A: Its viability, T/C is 35%.

Q: And the viability, T/C [34]?
A: The viability, T/C was 16.2%.

Q: And the viability, T/C [35]?
A: The viability, T/C was 12.2%.

Q: What about the viability, T/C [36] of the same compound?
A: The viability, T/C was 4.37%.
